Results reported in patent publication US11324752B2, “Imeglimin for preventing and/or treating hepatocellular carcinoma” (ERICARE, priority 2017, dated 2022).
Entries after “also recorded” stand apart in the source; their conditions may differ. Where a name gives a salt, the structure may show the parent alone.

How the values were obtained:
[1] = seven Phase 2 studies, 611 patients; cited from earlier work
HuH7 [2] = test: MTS Promega cell proliferation assay, HuH7; assay type: cell-based, human
Experimental: (§1) In vitro anti-proliferative effect of imeglimin compared to that of metformin in 2 models of human hepatocellular carcinoma (HCC). Determination of IC50 (median inhibitory concentration) by the MTS Promega™ cell proliferation assay (CellTiter 96™ AQueous Nonradioactive Cell Proliferation Assay Kit).
(§2) Different mM concentrations (0, 0.1, 0.25, 0.5, 1.0, 2.5, 5.0, 7.5, 10, 25, 50, 100) of imeglimin and metformin were tested in vitro on two human CHC cell lines, HepG2 and HuH7, over a period of 6 days.

HepG2 line = settings: for growth in volume of grafted tumors compared to placebo control group: FIG. 1
Experimental: In vivo anti-tumor activity of imeglimin compared to that of metformin, alone or in combination with sorafenib, on subcutaneous xenograft models of the CHC HepG2 line in 6 week old female mice with a BALB/c nude genetic background (Harlan).
Two million cells of the HepG2 line are injected into the left side of each mouse in a volume of 100 μl (50 μl PBS-50 μl matrigel). Mice developing a palpable tumor are randomized into 7 groups of
treatment of 14 mice according to the following design: placebo, imeglimin 75 mg/kg/day, imeglimin 150 mg/kg/day, metformin 75 mg/kg/day, sorafenib 40 mg/kg/day, imeglimin 75 mg/kg/day+sorafenib 40 mg/kg/day, metformin 75 mg/kg/day+sorafenib 40 mg/kg/day.
Metformin and imeglimin are administered in drinking water, sorafenib is administered by oral gavage. Treatment begins on the day of randomization.
The treatments were administered for 63 days. The evolution curves of the tumor volumes, as well as those of the weight of the animals, were analyzed during this period. The appearance of tumors and organs has been the subject of a macroscopic anatomic-pathological analysis.

HepG2 [3] = test: MTS Promega cell proliferation assay, HepG2; assay type: cell-based, human; settings: period of 6 days
Experimental: as §1, §2

mitochondrial I complex = settings: cited from earlier work
[4] = seven Phase 1 studies, 216 subjects; cited from earlier work
[5] = STZ diabetic rat; 35 days; 50 and 100 mg/kg/day; cited from earlier work
[6] = cited from earlier work
human liver tumor cells = settings: immunocompromised mice; cited from earlier work
HuH7 [7] = settings: in vitro; cited from earlier work
HepG2 [8] = settings: in vitro; cited from earlier work
[9] = in particular hepatocellular carcinoma; cited from earlier work
hepatocellular carcinoma = settings: cited from earlier work
[10] = 1500 mg twice daily, similar to 850 mg of metformin twice daily

C[C@H]1N=C(N(C)C)N=C(N)N1 [imeglimin, (6R)-(+)-4-dimethylamino-2-imino-6-methyl-1,2,5,6-tetrahydro-1,3,5-triazine hydrochloride]
tolerance and safety of use [1]: excellent tolerance and safety of use similar to those of the placebo
effect on HuH7 line compared with HepG2 line (HuH7 [2]): much more marked
change of inhibitory effect with time (HuH7 [2]; period of 6 days): increases with time
dose effect on tumor growth (HepG2 line; 75 mg/kg/day to 150 mg/kg/day, hydrochloride): dose-dependent inhibitory effect on tumor growth; also recorded: increases with the doubling of doses
mean weight of the animals (HepG2 line; 63 days of treatment): did not change
toxicity of treatment (HepG2 line; 63 days of treatment): did not prove to be toxic
growth in volume of grafted tumors compared to placebo control group (HepG2 line; 63 days of treatment): slow down the growth in volume of grafted tumors
effect on tumor volume compared with metformin (HepG2 line; imeglimin 150 mg/kg/day vs metformin 75 mg/kg/day (equipotent doses), hydrochloride): higher than metformin; also recorded: significantly greater than that of metformin
effect on tumor volume compared with sorafenib (HepG2 line; imeglimin 150 mg/kg/day vs sorafenib 40 mg/kg/day, hydrochloride): not significantly different from sorafenib; also recorded: does not have a significantly different effect
change of inhibitory effect with time (HepG2 [3]): increases with time
inhibition of mitochondrial I complex (mitochondrial I complex): does not inhibit
administration safety and tolerance [4]: excellent administration safety and tolerance
HbA1c [5]: significantly decreased
fasting blood glucose [5]: significantly decreased
fasting glucose levels [6, 10]: improves
hemoglobin A1c [6, 10]: improves
tolerance profile compared with metformin ([6]; diabetic patients): greater than that of metformin

CN(C)C(=N)N=C(N)N [metformin]
anti-cancer activity (human liver tumor cells): exhibits anti-cancer activity
cell growth inhibitory activity (HuH7 [7]): has cell growth inhibitory activity
cell growth inhibitory activity (HepG2 [8]): has cell growth inhibitory activity
growth in volume of grafted tumors compared to placebo control group (HepG2 line; 63 days of treatment): slow down the growth in volume of grafted tumors
cancers in treated patients with type 2 diabetes versus other anti-diabetic drugs [9]: fewer cancers

CNC(=O)c1cc(Oc2ccc(NC(=O)Nc3ccc(Cl)c(C(F)(F)F)c3)cc2)ccn1 [sorafenib, reference compound]
median survival time (hepatocellular carcinoma; patients with advanced hepatocellular carcinoma): 10.7 months
most important side effects (hepatocellular carcinoma; sorafenib group): Diarrhea, weight loss, hand-foot syndrome and hypophosphatemia
growth in volume of grafted tumors compared to placebo control group (HepG2 line; 63 days of treatment): slow down the growth in volume of grafted tumors
anti-angiogenic effect, observation at sacrifice (HepG2 line; sorafenib 40 mg/kg/day alone or with imeglimin 75 mg/kg/day): exerts its anti-angiogenic properties
